{"source": "the supplement of paper PMC8967900", "test_in_all_cases": "selective drug sensitivity score (sDSS, relative to normal bone marrow) (sDSS (score)); higher = more potent and effective on the cell line relative to normal bone marrow cells", "conditions_in_all_cases": "72 h", "key": {"TANOUE": {"tested_on": "TANOUE"}, "COG-LL-317": {"tested_on": "COG-LL-317"}, "COG-LL-332h": {"tested_on": "COG-LL-332h"}}}
{"compound": "N#CC(c1ccnc(OCc2ccc(CN3CCOCC3)cc2)n1)c1nc2ccccc2s1", "note": "(stereo not drawn) [Bentamapimod] (top concentration 10000 nM);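 further: ALL cell lines in 384-well plates, five doses spanning 10,000-fold, each plate scaled between vehicle and 100 µmol/L benzalkonium chloride controls, sDSS an adapted area-under-curve metric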", "values": [{"measurement": "selective drug sensitivity score", "setting": "TANOUE", "result": 0.84}, {"measurement": "selective drug sensitivity score", "setting": "COG-LL-317", "result": 3.34}, {"measurement": "selective drug sensitivity score", "setting": "COG-LL-332h", "result": 2.94}]}
{"compound": "Nc1ncnc2c1c(COc1cccc(Cl)c1)nn2C1CCOCC1", "note": "(top concentration 10000 nM)", "values": [{"measurement": "selective drug sensitivity score", "setting": "TANOUE", "result": 1.16}, {"measurement": "selective drug sensitivity score", "setting": "COG-LL-317", "result": -0.64}, {"measurement": "selective drug sensitivity score", "setting": "COG-LL-332h", "result": -0.14}]}
{"compound": "O=C(O)CNC(=O)c1c(O)c2ccccc2n(Cc2ccccc2)c1=O", "note": "[IOX-2] (top concentration 50000 nM)", "values": [{"measurement": "selective drug sensitivity score", "setting": "TANOUE", "result": -0.82}, {"measurement": "selective drug sensitivity score", "setting": "COG-LL-317", "result": -0.82}, {"measurement": "selective drug sensitivity score", "setting": "COG-LL-332h", "result": -0.62}]}
{"compound": "CN(CC(=O)N(Cc1ccc(C2CCCCC2)cc1)c1ccc(C(=O)O)cc1)S(=O)(=O)c1c(F)c(F)c(F)c(F)c1F", "note": "[SH-4-54] (top concentration 25000 nM)", "values": [{"measurement": "selective drug sensitivity score", "setting": "TANOUE", "result": -4.04}, {"measurement": "selective drug sensitivity score", "setting": "COG-LL-317", "result": -5.44}, {"measurement": "selective drug sensitivity score", "setting": "COG-LL-332h", "result": -0.04}]}
{"compound": "Cc1nc(C(=O)NCC(=O)O)c(O)c2ccc(Oc3ccccc3)cc12", "note": "[Roxadustat] (top concentration 10000 nM)", "values": [{"measurement": "selective drug sensitivity score", "setting": "TANOUE", "result": -1.12}, {"measurement": "selective drug sensitivity score", "setting": "COG-LL-317", "result": -1.12}, {"measurement": "selective drug sensitivity score", "setting": "COG-LL-332h", "result": -1.02}]}
{"compound": "N#Cc1ccnc(N2C(=O)CC[C@H]2C(=O)N(c2cncc(F)c2)[C@H](C(=O)NC2CC(F)(F)C2)c2ccccc2Cl)c1", "note": "[Ivosidenib] (top concentration 10000 nM)", "values": [{"measurement": "selective drug sensitivity score", "setting": "TANOUE", "result": 0}, {"measurement": "selective drug sensitivity score", "setting": "COG-LL-317", "result": 1.8}, {"measurement": "selective drug sensitivity score", "setting": "COG-LL-332h", "result": 1}]}
